# Data taken from the NIST ThermoML archive (doi:10.1016/j.fluid.2004.07.015).
# Numbers after ± are expanded uncertainties.
# Conditions: 101.33 kPa, Liquid
smiles,measurement,setting,value
CCCCn1cc[n+](C)c1.F[P-](F)(F)(F)(F)F [1-butyl-3-methylimidazolium hexafluorophosphate],mass density,289.1 K,1372.6 ± 3 kg/m3
same,mass density,291.1 K,1370.8 ± 2.9 kg/m3
same,mass density,293.1 K,1369.1 ± 2.9 kg/m3
same,mass density,295.1 K,1367.4 ± 2.9 kg/m3
same,mass density,297.05 K,1365.8 ± 2.9 kg/m3
same,mass density,299.1 K,1364.1 ± 2.9 kg/m3
same,mass density,301.05 K,1362.4 ± 2.9 kg/m3
same,mass density,303.15 K,1360.6 ± 2.9 kg/m3
same,mass density,305.1 K,1359 ± 2.9 kg/m3
same,mass density,307.15 K,1357.3 ± 2.9 kg/m3
same,mass density,309.15 K,1355.6 ± 2.9 kg/m3
